Reference: article PMC8231945, “Ingol and Ingenol-Type Diterpenes from Euphorbia trigona Miller with Keratinocyte Inhibitory Activity” (Plants, 2021)
Like-named read-outs stand apart in the source and are kept apart here.

System: HPV-Ker cells
Experiment: Viability test of HPV-Ker keratinocytes by real-time impedance monitoring (xCELLigence RTCA)
Format: cell-based, human
Details: for IC50: Homo sapiens, Keratinocyte; for keratinocyte inhibitory activity in vitro (overall verdict) / cytotoxic effect against keratinocytes: HPV-Ker; for keratinocyte inhibitory activity in vitro (overall verdict): compared to ingenol mebutate
Text: The main risk factor of induction of AK is UV irradiation. The UVB component of sunlight damages DNA, which might cause mutations in p53 and other tumor suppressor genes. Therefore, as an in vitro model of AK, we used the HPV-Ker cell line which contains the E6 oncoprotein of the human papillomavirus, leading to the degradation of the p53 tumor suppressor [26].
Since our compounds, especially the ingenol-derivatives, are structurally very similar to ingenol mebutate (Figure 3), we were interested in whether they have any effect on the viability of keratinocytes. The HPV-Ker cell line was treated with the isolated ingol- and ingenol-type diterpenoids with a concentration range of 5 × 10^−9–5 × 10^−4 M, the viability was measured with the xCELLigence System RTCA HT (Agilent Technologies, Santa Clara, CA, USA) instrument for 72 h, and data at 24 and 48 h were used for calculations (Table 1). IC50 values were calculated based on the sigmoidal dose–response formula.
The immortalized human keratinocyte cell line (HPV-Ker) was cultured in Keratinocyte-SFM supplemented with 5 ng/mL of recombinant epidermal growth factor, […] of bovine pituitary extract, and antibiotic/antimycotic solution in a CO2 thermostat at 37 °C.
The effect of the extracts and the purified compounds on HPV-Ker cells was investigated by real-time monitoring with the xCELLigence System RTCA HT Instrument (ACEA Biosciences, San Diego, CA, USA). 8 × 10^3 HPV-Ker cells were seeded in 96-well E-plates and keratinocytes were allowed to attach to the bottom of the wells and grow for 24 h. Cells were then treated with the indicated extract or substance for another 72 h. Real-time measurements of impedance were monitored every 15 min, then data at 24 and 48 h were used for calculations. The half-maximal inhibitory concentration (IC50) values for the compounds were calculated and GraphPad Prism 9.0 was used to plot results. All experiments were performed in duplicate, in three independent repeats.

[1] = HPV-Ker cell line, 24 h of treatment, ± SD, read-out: IC50 Value 24 h
[2] = HPV-Ker cell line, 48 h of treatment, ± SD, read-out: IC50 Value 48 h
[3] = HPV-Ker cells, RTCA normalized CI * hours, 24 h, read-out: IC50 (24h), Figure 4
[4] = HPV-Ker cells, RTCA normalized CI * hours, 48 h, read-out: IC50 (48h), Figure 4

Row | SMILES | IC50 [1] | IC50 [2] | also measured
1 | C/C=C(\C)C(=O)O[C@@H]1/C(C)=C/[C@@]23O[C@@]2(C[C@H](C)[C@@H]3OC(C)=O)C(=O)[C@H](C)[C@H](OC(C)=O)[C@@H]2[C@H]([C@@H]1O)C2(C)C [Compound 1, Ingol 3,12-diacetate 7-tigliate] | 14200 ± 2850 nM | 1720 ± 140 nM | 
2 | C/C=C(\C)C(=O)O[C@@H]1/C(C)=C/[C@@]23O[C@@]2(C[C@H](C)[C@@H]3OC(C)=O)C(=O)[C@H](C)[C@H](OC(C)=O)[C@@H]2[C@H]([C@@H]1OC)C2(C)C [Compound 2, 8-O-methyl-ingol 3,12-diacetate 7-tigliate] | 17300 ± 1650 nM | 14500 ± 3780 nM | 
3 | CO[C@H]1[C@H]2[C@@H]([C@@H](OC(C)=O)[C@@H](C)C(=O)[C@@]34C[C@H](C)[C@H](OC(C)=O)[C@]3(/C=C(\C)[C@H]1OC(=O)c1ccccc1)O4)C2(C)C [Compound 3, 8-O-methyl-ingol 3,12-diacetate 7-benzoate] |  |  | IC50 Value 24 h (HPV-Ker cell line, 24 h of treatment, ± SD): inactive; IC50 Value 48 h (HPV-Ker cell line, 48 h of treatment, ± SD): inactive
4 | C/C=C(/C)C(=O)O[C@H]1C(C)=CC23C(=O)[C@@H](C=C(COC(C)=O)[C@@H](O)[C@]12O)[C@H]1[C@@H](C[C@H]3C)[C@@]1(C)COC(C)=O [Compound 6, 17-acetoxyingenol 3-angelate 20-acetate] | 390 ± 90 nM | 320 ± 50 nM | keratinocyte inhibitory activity in vitro (overall verdict): strong keratinocyte inhibitory activity
5 | C/C=C(/C)C(=O)O[C@H]1C(C)=CC23C(=O)[C@@H](C=C(COC(C)=O)[C@@H](OC(C)=O)[C@]12O)[C@H]1[C@@H](C[C@H]3C)[C@@]1(C)COC(C)=O [Compound 7, 17-acetoxyingenol 3 angelate 5,20-diacetate] | 320 ± 20 nM | 870 ± 70 nM | keratinocyte inhibitory activity in vitro (overall verdict): strong keratinocyte inhibitory activity; IC50 [3]: 323 nM; IC50 [4]: 873 nM
6 | C/C=C(/C)C(=O)O[C@H]1C(C)=CC23C(=O)[C@@H](C=C(C)[C@@H](O)[C@]12O)[C@H]1[C@@H](C[C@H]3C)[C@@]1(C)COC(C)=O [Compound 8, 17-acetoxy-20-deoxyingenol 3-angelate] | 4320 ± 920 nM |  | 
7 | C/C=C(/C)C(=O)O[C@@H]1C(C)=C[C@@H]2C(=O)C3(C=C(C)[C@H](O)[C@@]13O)[C@H](C)C[C@@H]1[C@H]2[C@]1(C)COC(C)=O [Compound 9, 17-acetoxy-20-deoxyingenol 5-angelate] | 14800 ± 3830 nM | 7930 ± 1710 nM | 
8 | C/C=C(/C)C(=O)O[C@H]1C(C)=C[C@]23C(=O)[C@@H](C=C(CO)[C@@H](O)[C@]12O)[C@H]1[C@@H](C[C@H]3C)C1(C)C [Ingenol mebutate, reference compound] | 840 ± 10 nM | 960 ± 30 nM | cytotoxic effect against keratinocytes (0.5 µg/mL, 24 h): weaker, but still significant, cytotoxic effect; cytotoxic effect against keratinocytes (0.5 µg/mL, 48 h): comparable to the treatment when 5 µg/mL was used for 48 h; cytotoxic effect against keratinocytes (5 µg/mL, 24 h): strongest cytotoxic effect; cytotoxic effect against keratinocytes (5 µg/mL, 48 h): lower cytotoxicity; IC50 [3]: 844 nM; IC50 [4]: 959 nM
